Reference: patent publication US8889591B2, “Herbicidal compositions comprising 4-amino-3-chloro-5-fluoro-6-(4-chloro-2-fluoro-3-methoxyphenyl)pyridine-2-carboxylic acid or a derivative thereof and bromobutide, daimuron, oxaziclomefone or pyributicarb” (Dow Agrosciences LLC, priority 2012, dated 2014)

Columns and labels:
[1] = test system: CYPIR; experiment: Postemergence foliar-applied greenhouse weed control, direct-seeded rice system; format: in vivo, Cyperus iria L.
Source text: Seeds or nutlets of the desired test plant species were planted in a soil matrix prepared by mixing a loam or sandy loam soil (e.g., 28.6 percent silt, 18.8 percent clay, and 52.6 percent sand, with a pH of about 5.8 and an organic matter content of about 1.8 percent) and calcareous grit in an 80 to 20 ratio. The soil matrix was contained in plastic pots with a volume of 1 quart and a surface area of 83.6 square centimeters (cm^2). When required to ensure good germination and healthy plants, a fungicide treatment and/or other chemical or physical treatment was applied. The plants were grown for 8-22 days in a greenhouse with an approximate 14 h photoperiod which was maintained at about 29° C. during the day and 26° C. during the night. Nutrients (Peters Excel® 15-5-15 5-Ca 2-Mg and iron chelate) were applied in the irrigation solution as needed and water was added on a regular basis. Supplemental lighting was provided with overhead metal halide 1000-Watt lamps as necessary. The plants were employed for testing when they reached the first through fourth true leaf stage. […]
Treatment requirements were calculated based upon the rates being tested, the concentration of active ingredient or acid equivalent in the formulation, and a 12 mL application volume at a rate of 187 L/ha.
For treatments comprised of formulated compounds, measured amounts of compounds were placed individually in 25 mL glass vials and diluted in a volume of 1.25% (v/v) Agri-Dex® crop oil concentrated to obtain 12× stock solutions. […]
For treatments comprised of formulated and technical compounds, weighed amounts of the technical materials were placed individually in 25 mL glass vials and dissolved in a volume of 97:3 v/v acetone/DMSO to obtain 12× stock solutions, and measured amounts of the formulated compounds were placed individually in 25 mL glass vials and diluted in a volume of 1.5% (v/v) crop oil concentrate or water to obtain 12× stock solutions. […]

[2] = test system: CYPRO; experiment: In-water applied greenhouse weed control, transplanted paddy rice system; format: in vivo, Cyperus rotundus L.; conditions: in-water application
Procedure: Weed seeds or nutlets of the desired test plant species were planted in puddled soil (mud) prepared by mixing a shredded, non-sterilized mineral soil (50.5 percent silt, 25.5 percent clay, and 24 percent sand, with a pH of about 7.6 and an organic matter content of about 2.9 percent) and water at a 1:1 volumetric ratio. The prepared mud was dispensed in 365 mL aliquots into 16-ounce (oz.) non-perforated plastic pots with a surface area of 86.59 square centimeters (cm^2) leaving a headspace of 3 centimeters (cm) in each pot. Mud was allowed to dry overnight prior to planting or transplanting. Rice seeds were planted in Sun Gro MetroMix® 306 planting mixture, which typically has a pH of 6.0 to 6.8 and an organic matter content of about 30 percent, in plastic plug trays. Seedlings at the second or third leaf stage of growth were transplanted into 840 mL of mud contained in 32-oz. non-perforated plastic pots with a surface area of 86.59 cm^2 4 days prior to herbicide application. The paddy was created by filling the headspace of the pots with 2.5 to 3 cm of water. When required to ensure good germination and healthy plants, a fungicide treatment and/or other chemical or physical treatment was applied. The plants were grown for 4-22 days in a greenhouse with an approximate 14 h photoperiod which was maintained at about 29° C. during the day and 26° C. during the night. Nutrients were added as Osmocote® (19:6:12, N:P:K+ minor nutrients) at 2 g per 16-oz. pot and 4 g per 32-oz. pot. Water was added on a regular basis to maintain the paddy flood, and supplemental lighting was provided with overhead metal halide 1000-Watt lamps as necessary. The plants were employed for testing when they reached the first through fourth true leaf stage.
Treatments consisted of the acid or esters of 4-amino-3-chloro-5-fluoro-6-(4-chloro-2-fluoro-3-methoxy-phenyl)pyridine-2-carboxylic acid (compound A) each formulated as an SC and various herbicidal components alone and in combination. Forms of compound A were applied on an acid equivalent basis.
Other herbicidal components were applied on an active ingredient basis and included daimuron formulated as an EC, bromobutide (technical grade material), and oxaziclomefone (technical grade material).
Treatment requirements for each compound or herbicidal component were calculated based upon the rates being tested, the concentration of active ingredient or acid equivalent in the formulation, an application volume of 2 mL per component per pot, and an application area of 86.59 cm^2 per pot.
For formulated compounds, a measured amount was placed in an individual 100 or 200 mL glass vial and was dissolved in a volume of 1.25% (v/v) Agri-Dex® crop oil concentrate to obtain application solutions.
For technical grade compounds, a weighed amount was placed in an individual 100 to 200 mL glass vial and was dissolved in a volume of acetone to obtain concentrated stock solutions. […] The concentrated stock solutions obtained were diluted with an equivalent volume of an aqueous mixture containing 2.5% (v/v) crop oil concentrate so that the final application solutions contained 1.25% (v/v) crop oil concentrate.
Applications were made by injecting, with a pipetter, appropriate amounts of the application solutions, individually and sequentially, into the aqueous layer of the paddy. Control plants were treated in the same manner with the solvent blank. Applications were made so that all treated plant material received the same concentrations of acetone and crop oil concentrate.
The treated plants and control plants were placed in a greenhouse as described above and water was added as needed to maintain a paddy flood. After approximately 3 weeks the condition of the test plants as compared with that of the untreated plants was determined visually and scored on a scale of 0 to 100 percent where 0 corresponds to no injury or growth inhibition and 100 corresponds to complete kill. […]

[3] = Compound A Benzyl Ester 8.75 gae/ha alone

COc1c(Cl)ccc(-c2nc(C(=O)OCc3ccccc3)c(Cl)c(N)c2F)c1F [Compound A Benzyl Ester]
Visual Weed Control (%) - 22 DAA CYPIR Obs ([1]; Compound A Benzyl Ester 4.38 gae/ha alone): 25% | Visual Weed Control (%) - 22 DAA CYPIR Obs [1, 3]: 50% | Visual Weed Control (%) - 19 DAA CYPRO Obs ([2]; Compound A Benzyl Ester 8 gae/ha alone): 50% | Visual Weed Control (%) - 21 DAA CYPRO Obs [2, 3]: 60% | Visual Weed Control (%) - 19 DAA CYPRO Obs ([2]; Compound A Benzyl Ester 16 gae/ha alone): 85% | Visual Weed Control (%) - 19 DAA CYPRO Obs ([2]; Compound A Benzyl Ester 32 gae/ha alone): 90%
